Legend:
[1] = system: tumor tissue of breast cancer mouse implanted in BALB/c nude mouse; assay: Fluorescent contrast imaging test in tumor-implanted nude mice; assay type: in vivo; design: key: A: fluorescence was clearly observed in the tumor portion; B: fluorescence was also observed in the normal portion but the tumor portion was discernible; C: the normal portion and the tumor portion emitted slight fluorescence but the tumor portion was barely discernible; D: slight fluorescence was emitted overall and the tumor portion was not discernible from the normal portion; E: no fluorescence was observed; conditions: 3 mg/kg through lactiferous duct and adenoid lobe; whole-body fluorescent imaging 30 min., 12 hr. and 24 hr. after dosage; fluorescence of tumor portion
Method: Model mice having breast cancer were prepared by dosing a carcinogene, 7,12-dimethylbenz[a]anthracene (DMBA) to an acceleratedly aged mice, SAMP6/Ta type mouse as one system of a so-called SAM type to cause breast cancer. Carcinogenesis was carried out in accordance with the description of JP-A No. 2003-033125. To each of 20 SAMP6/Ta type mice, DMBA was dosed in an amount of 0.5 mg/mouse·week, a total of six times. Solid high-protein, high-calorie CA-1 (available from CLEA Japan Inc.) was fed to the mice. After completion of the 6th dose of the carcinogenic substance, the dosage was stopped until the 20th month calculated from the 1st month. Breast cancer and lung metastasis were examined in the manner of pathologic histology.
A segment (2 mm×2 mm square) of tumor tissue of the foregoing breast cancer mouse was implanted below the skin of the breast in the left chest of a BALB/c nude mouse (5 weeks old, CLEA Japan Inc.). After 10 days, when the tumor has grown up to a diameter of approximately 5 mm, the foregoing mice were subjected to the fluorescent contrast imaging test. A titanium/sapphire laser was used as an exciting light source. The test mice in a darkened box were uniformly exposed to laser light using a ring-type light guide (available from Sumita Optical Glass Inc.) so that the dispersion of exposure fell within 2%. The irradiation output was adjusted so as to be about 38 μW/cm^2 near the skin surface of the mice. Fluorescence was emitted by excitation at the absorption peak wavelength of the respective compounds and fluorescent radiation from the mice was subjected to detection and imaging by using a CCD camera (C4880, produced by Hamamatsu Photonics K.K.) together with a filter to cut reflection of incident light at the shorter wavelength side. The exposure time was adjusted in accordance with the fluorescence intensity of the respective compounds. As to the tumor portion, the image obtained by attaching a marker onto the skin surface and observing it under white light was superposed onto the image obtained by removing the marker, followed by exposure to a laser light in the dark and evaluation was made with respect to fluorescence emitted from the tumor portion.
Each of the test compounds shown in Table 1 was dissolved in a normal saline solution (at 0.5 mg/ml) and dosed to the mice through a lactiferous duct and an adenoid lobe. The dose was 3 mg/kg for the respective test compounds. […]

[2] = Water-solubility test of compound in normal saline solution; assay type: physicochemical; conditions: saline or isotonic, thermodynamic from solid, 0.5 mg in 1 ml normal saline solution, 42° C., precipitation or deposits
Method: In 1 ml of normal saline solution of an official grade was dissolved 0.5 mg of a dye (i.e., the cyanine compound to be tested) to make a solution.

[3] = Discharge in vitro of cyanine compound (urethra catheter, liquid chromatograph); design: species or system mouse; conditions: sum of discharge over one week after dosage; relative value, amount in vivo after dosage = 100
Method: Discharge in vitro of a cyanine compound of contrast medium material was determined by fitting a urethra with a catheter and summing up the discharge over one week after the dosage, and represented by a relative value, based on the amount in vivo of the cyanine compound after the dosage thereof being 100. The discharge of a cyanine compound was determined using liquid chromatograph 2010 (available from Shimazu Corporation).

Row | solubility at 1 week [2] | Discharge in vitro (%) [3] | Structure (SMILES) | Contrast Imaging [1]
1 | > 500 µg/mL | 99.0% | CC12CCC(/C=C/C=C/C=C3\CCC4(C)C3=[N+](CC(O)CS(=O)(=O)[O-])c3cccnc34)=C1N(CC(O)CS(=O)(=O)O)c1cccnc12 (stereo not drawn) [Compound 12] | A
2 | > 500 µg/mL | 99.0% | CC12CCC(/C=C/C=C/C3=CC(=C4\CCC5(C)C4=[N+](CC(O)CS(=O)(=O)O)c4ccc(S(=O)(=O)[O-])cc45)/CCC3)=C1N(CC(O)CS(=O)(=O)O)c1ccc(S(=O)(=O)O)cc12 (stereo not drawn) [Compound 37] | A
3 | > 500 µg/mL | 97.0% | CC1(C)C(/C=C/C=C/C=C/C=C2/N(CCCCS(=O)(=O)O)c3ccc4cc(S(=O)(=O)O)cc(S(=O)(=O)[O-])c4c3C2(C)C)=[N+](CCCCS(=O)(=O)O)c2ccc3cc(S(=O)(=O)O)cc(S(=O)(=O)O)c3c21 [Compound C-2] | B

Row | Structure (SMILES) | solubility at 1 week [2] | Discharge in vitro (%) [3] | Contrast Imaging [1]
4 | CC1(C)C(/C=C/C=C/C=C/C=C2/N(CCCCS(=O)(=O)[O-])c3ccc4ccccc4c3C2(C)C)=[N+](CCCCS(=O)(=O)[O-])c2ccc3ccccc3c21.[Na+] [Compound C-1, indoaniline green] | < 500 µg/mL | 99.0% | C

From US7682602B2, “Near-infrared fluorescent contrast medium” (Konica Minolta Medical & Graphic, Inc., priority 2003, dated 2010)
